Data on 13 compounds can be found in patent US5686422A, “Synthetic inhibitors of mammalian collagenase” (Research Corporation Technologies, Inc., priority 1995, dated 1997).

The target of one experiment is T1, pig synovial collagenase (Sus scrofa, UniProt P21692).
T1 construct: pig synovial collagenase (0.04 μg protein); from tissue; host or cells: pig synovium (only from the enzyme's name; preparation not described)
T1 sequence (P21692 100-469): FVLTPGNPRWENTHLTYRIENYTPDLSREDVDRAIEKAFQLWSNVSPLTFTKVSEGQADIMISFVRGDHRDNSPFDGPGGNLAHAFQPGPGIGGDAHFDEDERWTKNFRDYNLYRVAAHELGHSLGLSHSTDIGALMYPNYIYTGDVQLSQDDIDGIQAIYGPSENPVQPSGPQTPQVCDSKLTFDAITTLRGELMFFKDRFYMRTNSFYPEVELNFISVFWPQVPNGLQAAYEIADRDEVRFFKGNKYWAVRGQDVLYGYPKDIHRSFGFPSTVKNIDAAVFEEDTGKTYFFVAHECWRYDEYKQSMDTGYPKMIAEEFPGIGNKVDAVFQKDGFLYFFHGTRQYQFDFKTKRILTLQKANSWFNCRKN
Briefly: Collagenase assay: degradation of type I collagen (SDS-PAGE/densitometry or spectrophotometric). It counts as biochemical. The protocol:
Collagenase activity was determined after electrophoretic separation of degraded from undegraded type I collagen by polyacrylamide gel electrophoresis and densitometry as follows.
Acid-soluble calf skin collagen (0.25 mg/ml, approximately […]) was incubated at 35° C. for 1 hr with pig synovial collagenase (0.04 μg protein) in 0.05M tris-HCL, 0.2M NaCl, 0.25M glucose, 5 mM CaCl2, 10% dimethyl sulfoxide, pH 7.6 in a total reaction volume of 20 μL. Inhibitors were dissolved in dimethyl sulfoxide and the sulfhydryl titer determined in stock solutions immediately prior to use by the colorimetric procedure of Ellman [Ellman, G. L., Arch. Biochem. Biophys. 82: 70-77 (1959)]. At the end of the reaction period, the reactions were stopped by placing on ice and 20 μL sample dilution buffer was added [Laemmli, U. K., Nature (London) 227: 680-685 (1970)]. The samples were then placed in a boiling water bath for 2-5 minutes after which collagen degradation products were separated from undegraded collagen by sodium dodecyl sulfate-polyacrylamide electrophoresis according to the procedure of Laemmli [1970]. The electrophoretograms were fixed in isopropanol/acetic acid/water (100:40:300) and stained with 1% Coomassie Blue R-250. The percentage of collagen alpha chains degraded was estimated by scanning densitometry and integration of peak areas [Welgus et al., J. Biol. Chem. 256: 9511-9515 (1981)].
A spectrophotometric method was also utilized in some cases to determine collagenase activity [Lindy, S. et al., European J. Biochem. 156: 1-4 (1986)]. The conditions were the same as given above except that the reaction volume was 200 μL, the temperature was 37° C. and the enzyme concentration was 1.2 μg protein/ml. Stock solutions of inhibitors were prepared in 1 mM acetic acid in ethanol and the sulfhydryl titer determined colorimetrically by the method of Ellman […]. The reaction progress was monitored for 6-10 minutes by following the increase in absorbance at 227 nm that accompanies denaturation of the collagen fragments. Initial rates of collagen degradation were determined from the linear portion of the progress curves.

The target in experiment [1] is T2, Collagenase, purified from sodium hydroxide burned rabbit corneal tissue (Oryctolagus cuniculus, UniProt P13943).
T2 sequence (P13943 99-468): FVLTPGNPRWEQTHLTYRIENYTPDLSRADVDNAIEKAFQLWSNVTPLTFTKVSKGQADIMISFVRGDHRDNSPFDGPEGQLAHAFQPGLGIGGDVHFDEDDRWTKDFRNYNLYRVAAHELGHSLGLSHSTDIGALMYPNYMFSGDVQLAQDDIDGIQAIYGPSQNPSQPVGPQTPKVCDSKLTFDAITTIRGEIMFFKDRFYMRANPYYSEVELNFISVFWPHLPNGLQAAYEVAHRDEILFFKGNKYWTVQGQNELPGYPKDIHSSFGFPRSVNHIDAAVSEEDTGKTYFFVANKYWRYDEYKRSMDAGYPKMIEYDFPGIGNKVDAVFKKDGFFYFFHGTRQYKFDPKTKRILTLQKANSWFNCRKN
Description: Qualitative SDS-PAGE assay of collagen degradation by corneal collagenase. It counts as biochemical. The protocol:
Collagenase, purified from sodium hydroxide burned rabbit corneal tissue, was placed in a reaction mixture containing Type I collagen (0.4 mg/ml), 0.005M Tris-HCl, 0.2M NaCl, 0.25M glucose, pH 7.7. Reactions were initiated by adding the enzyme to the reaction mixture; inhibitory potency was estimated by running separate reaction mixtures in which the peptide HSCH2 CH[CH2 CH(CH3)2 ]--CO-Phe-Ala-NH2, made in accordance with Example 2, was added in varying concentrations to the mixture and incubated for 3 hours at 30° C. Other compounds were assayed for inhibitory potency in a similar manner. Reaction mixtures were quenched by placing them on ice and then adding one volume of sample dilution buffer followed by boiling the mixtures in a water bath for 5 minutes. Collagen degradation products were resolved from undegraded collagen by sodium dodecylsulfate-polyacylamide gel electrophoresis (SDS-PAGE) followed by staining with Coomassie Blue R-250. The SDS-PAGE assay was used to qualitatively evaluate the inhibitory capacity of the compounds tested. An estimate of inhibitory potency was then noted by visualizing the concentration range which produced 50% inhibition of collagen degradation.
The results of this qualitative assay are expressed as an IC50 range (Table II). For example, doxycyline's IC50 is 0.2 to 1.0 mM. That is, a doxycycline concentration of 0.2 to 1.0 mM is required to obtain a 50% inhibition of collagen degradation. These estimated ranges were then used to predict the inhibitor concentrations tested in the quantitative analysis detailed below.

The target of the next experiment is T3, PA elastase (Pseudomonas aeruginosa, UniProt P14756).
T3 construct: made in house; host or cells: native secreted enzyme from a virulent Pseudomonas aeruginosa strain grown on tryptone glucose extract agar
T3 sequence (P14756 198-498): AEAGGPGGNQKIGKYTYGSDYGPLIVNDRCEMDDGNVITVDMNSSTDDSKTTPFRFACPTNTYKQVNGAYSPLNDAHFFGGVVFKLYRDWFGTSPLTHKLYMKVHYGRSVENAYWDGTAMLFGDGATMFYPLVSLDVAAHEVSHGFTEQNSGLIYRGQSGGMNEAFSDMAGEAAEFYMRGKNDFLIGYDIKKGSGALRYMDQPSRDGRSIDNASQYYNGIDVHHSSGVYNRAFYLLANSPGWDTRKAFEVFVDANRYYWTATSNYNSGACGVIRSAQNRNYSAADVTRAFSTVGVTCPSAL
Briefly: biochemical. The protocol:
Pseudomonas aeruginosa proteases were obtained by overnight incubation of virulent strain of Pseudomonas aeruginosa (PA) on tryptone glucose extract agar.
The PA elastase was tested in accordance with the procedures analogous to those conducted on purified collagenase in Example 5.
Example 7 was repeated using three corneal ulceration treatments of the prior art: Tetracycline, minocycline and doxycycline.

For experiment [2], the target named is T2, Collagenase, purified from sodium hydroxide burned rabbit corneal tissue. Description: Quantitative fluorometric assay with fluorogenic Dnp-peptide substrate. It counts as biochemical. The conditions noted are these: Dnp-substrate 20 uM, 37° C. for 2 to 3 minutes. The procedure:
Quantitative determination of collagenase activity was carried out with a fluorogenic peptide substrate, Dnp-Pro-Leu-Gly-Leu-Trp-Ala-D-Arg-NH2,which collagenase cleaves to produce Dnp-Pro-Leu-Gly and Leu-Trp-Ala-D-Arg-NH2. The rate of production of the tetrapeptide was monitored with an AMINCO-BOWMAN® spectrofluorometer (excitation wavelength of 280 nm and emission wavelength of 346 nm). This test was repeated using high performance liquid chromatography (HPLC) to separate and detect the two cleaved collagenase products.
Reaction mixtures for both the fluorometric and HPLC assays contained 0.05M Tris-HCl, 0.2M NaCl, 10 mM CaCl2 and Dnp-substrate 20 uM, pH 7.7. The peptide of Example 2 was added to the assay mixtures at varying concentrations. The incubation conditions differed between the two assays; the fluorometric reaction mixtures were incubated at 37° C. for 2 to 3 minutes whereas the HPLC reaction mixtures were incubated at 37° C. for 3 hours. This was necessary because the HPLC assay was not as sensitive in detecting the substrate cleavage products as the fluorometric assay. IC50 values were interpolated from plots of log[Ao /Ai)-1[ vs. log[Inhibitor], where Ao is the activity observed in the absence of inhibitor and Ai is the activity observed in the presence of inhibitor at concentration i.

Setting [3] is: mixture containing approximately equal amounts of the two diastereomers, read-out: IC50 (uM), diastereomers not resolved.
The mark [4] stands for this setting: SDS-PAGE, visual estimate, Type I collagen 0.4 mg/ml, 3 hours at 30° C.
Setting [5] is: fast-eluting diastereomer (C18 reversed phase), approximate concentration giving 50% inhibition of collagen degradation, read-out: IC50 (uM) Fast Isomer.
Where [6] appears, read: slow-eluting diastereomer (C18 reversed phase), approximate concentration giving 50% inhibition of collagen degradation, read-out: IC50 (uM) Slow Isomer.

The term IC50 denotes the concentration needed to halve the response being measured.

Read-outs that look alike come from different tables or passages of the source.

For the compound `CCOC(=O)[C@H](C)NC(=O)[C@H](CCCCNC(=O)OC(C)(C)C)NC(=O)C(CS)CC(C)C` (some centres unmarked), the IC50 at pig synovial collagenase (setting [3]) was determined as 4 µM.

For the compound `CC(=O)N[C@@H](CS)C(=O)O` [Acetylcysteine, acetylcysteine], in experiment [1] (setting [4]), the “Estimated IC50 Range” value is 10000 to 30000 µM.

For the compound `CC(C)CC(CS)C(=O)N[C@@H](Cc1ccccc1)C(=O)N[C@@H](C)C(N)=O` (stereo partly drawn) [Compound 3, 2-[(R,S)-Mercaptomethyl]-4-methylpentanoyl-L-phenylalanyl-L-alanine amide], the 50% inhibitory concentration (IC50) worked out at 0.3 µM against PA elastase, 0.3 µM on pig synovial collagenase (setting [5]) and 0.04 µM at pig synovial collagenase (setting [6]).

In the case of `CC(C)CC(CS)C(=O)N[C@@H](Cc1c[nH]c2ccccc12)C(=O)N[C@@H](C)C(N)=O` (some centres unmarked) [Compound 4, HSCH2 CH[CH2 CH(CH3)2]COTrpAlaNH2], the IC50 on pig synovial collagenase (setting [3]) was found to be 0.05 µM.

Regarding `CC(C)CC(CS)C(=O)N[C@@H](Cc1ccccc1)C(=O)N[C@@H](CC(C)C)C(N)=O` (stereo partly drawn) [Compound 5, 2-[(R,S)-Mercaptomethyl]-4-methylpentanoyl-L-phenylalanyl-L-leucine amide], the IC50 at pig synovial collagenase (setting [5]) was 10 µM; on pig synovial collagenase (setting [6]), 4 µM.

As to `CC(C)CC(CS)C(=O)N[C@@H](Cc1ccccc1)C(=O)N[C@@H](Cc1ccccc1)C(N)=O` (some centres unmarked) [Compound 6, HSCH2 CH[CH2 CH(CH3)2]COPhePheNH2], the IC50 at pig synovial collagenase (setting [3]) turned out to be 2 µM.

In the case of `CC(C)CC(CS)C(=O)N[C@@H](Cc1ccc2ccccc2c1)C(=O)N[C@@H](C)C(N)=O` (some centres unmarked) [Compound 7, HSCH2 CH[CH2 CH(CH3)2]CCNalAlaNH2], the IC50 on pig synovial collagenase (setting [3]) worked out at 0.03 µM.

On to `N[C@@H](CS)C(=O)O` [Cysteine, cysteine], for which the “Estimated IC50 Range” value in experiment [1] (setting [4]) is 3000 to 10000 µM.

The compound `C[C@H]1c2cccc(O)c2C(=O)C2=C(O)[C@]3(O)C(=O)C(C(N)=O)=C(O)[C@@H](N(C)C)[C@@H]3[C@@H](O)[C@@H]21` [Doxycycline, doxycycline] came in with an IC50 at PA elastase of 110 µM. In experiment [1] (setting [4]), the “Estimated IC50 Range” value is 200 to 1000 µM.

`CN(C)c1ccc(O)c2c1C[C@H]1C[C@H]3[C@H](N(C)C)C(O)=C(C(N)=O)C(=O)[C@@]3(O)C(O)=C1C2=O` [Minocycline, minocycline] returned an IC50 on PA elastase of 260 µM.

Regarding `O=C1O[C@H]([C@@H](O)CO)C([O-])=C1O.[Na+]` [Sodium Ascorbate], in experiment [1] (setting [4]), the “Estimated IC50 Range (mM)” value is on record as “No Inhibition”.

In experiment [2], `O=C([O-])CC(O)(CC(=O)[O-])C(=O)[O-].[Na+].[Na+].[Na+]` [Sodium Citrate, sodium citrate] yielded an IC50 of 45000 µM. The “reversal of inhibition by excess Ca++” value in experiment [1] (SDS-PAGE assay, footnote to Table II) is reported as “Reversed by addition of excess Ca++”. The “Estimated IC50 Range” value in experiment [1] (setting [4]) is 10000 to 30000 µM.

In the case of `CN(C)[C@@H]1C(O)=C(C(N)=O)C(=O)[C@@]2(O)C(O)=C3C(=O)c4c(O)cccc4[C@@](C)(O)[C@H]3C[C@@H]12` [Tetracycline, tetracycline], half-maximal inhibition on PA elastase (IC50) was put at 660 µM. The “Estimated IC50 Range” value in experiment [1] (setting [4]) was 1000 to 2000 µM.
